# Measurements as given in the kinase profiling compilation of Christmann-Franck et al. (2016).
# How the values were obtained:
# Assay in all cases: radiometric filter-binding kinase assay, Kinase HotSpot
# Conditions in all cases: compound 0.5 µM; ATP 10 µM
# EPHA6 (human) = EPHA6 (human) (UniProt Q9UF33)
# STK38 (human) = STK38 (human) (UniProt Q15208)
# DAPK3 (human) = DAPK3 (human) (UniProt O43293)
# PTK2B (human) = PTK2B (human) (UniProt Q14289)
# RPS6KA6 KD1 KD2 (human) = RPS6KA6 KD1 KD2 (human) (UniProt Q9UK32)
# RPS6KA6 KD1 KD2 (human), sequence (Q9UK32 whole entry, looked up): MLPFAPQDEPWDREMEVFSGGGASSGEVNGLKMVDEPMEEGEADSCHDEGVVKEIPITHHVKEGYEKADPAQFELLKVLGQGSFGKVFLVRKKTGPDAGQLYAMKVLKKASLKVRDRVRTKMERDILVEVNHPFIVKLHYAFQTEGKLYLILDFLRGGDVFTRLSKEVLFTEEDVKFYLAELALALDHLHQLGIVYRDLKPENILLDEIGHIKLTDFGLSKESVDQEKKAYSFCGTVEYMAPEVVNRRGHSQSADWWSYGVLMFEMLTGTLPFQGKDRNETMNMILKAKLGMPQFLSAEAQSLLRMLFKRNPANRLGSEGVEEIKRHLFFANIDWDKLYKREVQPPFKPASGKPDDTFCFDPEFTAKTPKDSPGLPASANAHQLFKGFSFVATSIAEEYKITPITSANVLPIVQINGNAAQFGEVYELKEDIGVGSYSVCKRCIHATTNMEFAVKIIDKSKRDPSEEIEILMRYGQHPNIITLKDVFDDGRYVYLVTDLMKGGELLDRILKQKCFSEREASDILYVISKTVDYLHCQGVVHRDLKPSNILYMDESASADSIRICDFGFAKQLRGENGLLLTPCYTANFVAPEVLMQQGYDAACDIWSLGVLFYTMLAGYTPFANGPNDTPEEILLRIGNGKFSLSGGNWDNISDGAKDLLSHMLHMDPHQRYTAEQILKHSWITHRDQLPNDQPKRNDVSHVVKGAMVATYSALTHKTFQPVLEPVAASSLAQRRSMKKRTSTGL
# CHUK (human) = CHUK (human) (UniProt O15111)
# CAMK1 (human) = CAMK1 (human) (UniProt Q14012)
# WNK3 (human) = WNK3 (human) (UniProt Q9BYP7)
# ULK3 (human) = ULK3 (human) (UniProt Q6PHR2)
# ULK3 (human), sequence (Q6PHR2 whole entry, looked up): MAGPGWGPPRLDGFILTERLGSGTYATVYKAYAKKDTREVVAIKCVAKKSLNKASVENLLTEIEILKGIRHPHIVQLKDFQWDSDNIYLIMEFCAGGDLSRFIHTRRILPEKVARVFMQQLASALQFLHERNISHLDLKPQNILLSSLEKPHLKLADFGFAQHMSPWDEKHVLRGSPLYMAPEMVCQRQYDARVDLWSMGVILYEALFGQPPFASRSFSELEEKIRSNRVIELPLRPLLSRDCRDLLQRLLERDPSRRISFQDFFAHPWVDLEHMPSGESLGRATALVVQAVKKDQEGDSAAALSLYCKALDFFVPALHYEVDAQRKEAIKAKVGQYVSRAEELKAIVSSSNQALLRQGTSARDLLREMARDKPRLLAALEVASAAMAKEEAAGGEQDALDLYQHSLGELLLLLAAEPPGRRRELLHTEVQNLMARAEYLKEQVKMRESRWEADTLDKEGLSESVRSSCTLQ
# SYK (human) = SYK (human) (UniProt P43405)
# CSNK1D (human) = CSNK1D (human) (UniProt P48730)
# RAF1 (human) = RAF1 (human) (UniProt P04049)
# IKBKB (human) = IKBKB (human) (UniProt O14920)
# CLK3 (human) = CLK3 (human) (UniProt P49761)
# CLK3 (human), sequence (P49761 whole entry, looked up): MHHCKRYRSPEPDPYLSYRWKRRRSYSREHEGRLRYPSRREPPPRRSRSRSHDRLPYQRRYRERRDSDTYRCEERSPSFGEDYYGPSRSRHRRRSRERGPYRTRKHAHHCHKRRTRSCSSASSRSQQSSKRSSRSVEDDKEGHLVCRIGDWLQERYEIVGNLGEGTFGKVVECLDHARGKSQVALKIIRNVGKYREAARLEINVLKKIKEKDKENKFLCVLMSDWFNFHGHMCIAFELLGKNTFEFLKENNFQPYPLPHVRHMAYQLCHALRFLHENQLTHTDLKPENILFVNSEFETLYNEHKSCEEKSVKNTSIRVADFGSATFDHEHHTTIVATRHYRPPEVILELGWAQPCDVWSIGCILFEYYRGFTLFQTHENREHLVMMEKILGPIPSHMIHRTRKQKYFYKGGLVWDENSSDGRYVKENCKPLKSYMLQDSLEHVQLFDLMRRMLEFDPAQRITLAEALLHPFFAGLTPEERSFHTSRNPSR
# TGFBR2 (human) = TGFBR2 (human) (UniProt P37173)
# TGFBR2 (human), sequence (P37173 whole entry, looked up): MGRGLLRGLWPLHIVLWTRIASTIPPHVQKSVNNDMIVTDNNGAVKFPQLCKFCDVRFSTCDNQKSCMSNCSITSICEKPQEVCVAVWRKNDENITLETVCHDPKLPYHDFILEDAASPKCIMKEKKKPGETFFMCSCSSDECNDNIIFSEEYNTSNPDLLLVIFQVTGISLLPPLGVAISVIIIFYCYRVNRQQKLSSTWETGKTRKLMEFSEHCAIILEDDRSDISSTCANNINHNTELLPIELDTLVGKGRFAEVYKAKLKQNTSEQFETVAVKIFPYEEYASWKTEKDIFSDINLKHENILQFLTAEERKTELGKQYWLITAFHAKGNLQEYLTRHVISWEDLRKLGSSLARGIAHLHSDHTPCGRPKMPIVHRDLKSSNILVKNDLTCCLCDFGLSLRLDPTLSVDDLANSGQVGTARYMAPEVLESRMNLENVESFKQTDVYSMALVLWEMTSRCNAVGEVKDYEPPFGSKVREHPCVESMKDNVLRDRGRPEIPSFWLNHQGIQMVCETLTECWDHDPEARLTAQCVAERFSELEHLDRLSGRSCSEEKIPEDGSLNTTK
# PAK1 (human) = PAK1 (human) (UniProt Q13153)
# EPHA3 (human) = EPHA3 (human) (UniProt P29320)
# CDK1 CCNA2 (human) = CDK1 CCNA2 (human) (UniProt P06493+P20248)
# BRAF (human) = BRAF (human) (UniProt P15056)
# BRAF (human), sequence (P15056 whole entry, looked up): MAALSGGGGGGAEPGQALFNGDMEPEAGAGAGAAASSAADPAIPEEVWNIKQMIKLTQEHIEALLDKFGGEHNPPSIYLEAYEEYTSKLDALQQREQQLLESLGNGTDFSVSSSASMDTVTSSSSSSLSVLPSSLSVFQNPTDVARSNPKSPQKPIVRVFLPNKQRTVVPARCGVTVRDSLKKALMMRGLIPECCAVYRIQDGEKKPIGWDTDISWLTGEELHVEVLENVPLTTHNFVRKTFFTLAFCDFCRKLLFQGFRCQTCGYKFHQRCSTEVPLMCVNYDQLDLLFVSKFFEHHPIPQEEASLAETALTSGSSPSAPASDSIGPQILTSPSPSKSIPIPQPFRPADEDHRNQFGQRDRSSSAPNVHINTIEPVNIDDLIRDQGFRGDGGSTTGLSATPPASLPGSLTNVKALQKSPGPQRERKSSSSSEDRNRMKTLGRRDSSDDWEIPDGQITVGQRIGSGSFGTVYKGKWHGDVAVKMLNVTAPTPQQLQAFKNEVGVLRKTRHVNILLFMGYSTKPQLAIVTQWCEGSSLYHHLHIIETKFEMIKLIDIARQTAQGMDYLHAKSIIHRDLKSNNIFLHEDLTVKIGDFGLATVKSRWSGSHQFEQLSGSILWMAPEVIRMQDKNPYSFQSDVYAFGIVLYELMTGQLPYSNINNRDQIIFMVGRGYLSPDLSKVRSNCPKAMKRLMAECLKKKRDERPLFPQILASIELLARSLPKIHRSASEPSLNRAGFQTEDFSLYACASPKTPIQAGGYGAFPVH
# PRKACA (human) = PRKACA (human) (UniProt P17612)
# DMPK (human) = DMPK (human) (UniProt Q09013)
# DMPK (human), sequence (Q09013 whole entry, looked up): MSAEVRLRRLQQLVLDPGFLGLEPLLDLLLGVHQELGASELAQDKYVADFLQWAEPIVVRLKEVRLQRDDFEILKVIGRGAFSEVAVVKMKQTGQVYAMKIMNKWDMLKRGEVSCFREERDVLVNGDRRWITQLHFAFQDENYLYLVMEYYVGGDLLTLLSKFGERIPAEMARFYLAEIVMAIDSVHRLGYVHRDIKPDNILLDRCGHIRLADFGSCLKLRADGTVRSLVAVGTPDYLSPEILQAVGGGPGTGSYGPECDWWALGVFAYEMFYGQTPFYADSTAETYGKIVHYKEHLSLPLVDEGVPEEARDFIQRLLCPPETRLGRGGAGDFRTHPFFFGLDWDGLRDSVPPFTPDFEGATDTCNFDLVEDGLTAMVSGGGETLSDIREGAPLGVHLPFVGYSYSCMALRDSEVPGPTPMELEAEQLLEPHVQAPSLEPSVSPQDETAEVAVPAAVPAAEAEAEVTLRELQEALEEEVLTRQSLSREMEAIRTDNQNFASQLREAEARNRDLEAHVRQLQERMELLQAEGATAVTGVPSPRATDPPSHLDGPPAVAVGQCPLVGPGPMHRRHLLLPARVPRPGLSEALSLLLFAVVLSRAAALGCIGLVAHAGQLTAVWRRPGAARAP
# PTK6 (human) = PTK6 (human) (UniProt Q13882)
# CDK6 CCND3 (human) = CDK6 CCND3 (human) (UniProt P30281+Q00534)
# MAPK10 (human) = MAPK10 (human) (UniProt P53779)
# IKBKE (human) = IKBKE (human) (UniProt Q14164)
# IKBKE (human), sequence (Q14164 whole entry, looked up): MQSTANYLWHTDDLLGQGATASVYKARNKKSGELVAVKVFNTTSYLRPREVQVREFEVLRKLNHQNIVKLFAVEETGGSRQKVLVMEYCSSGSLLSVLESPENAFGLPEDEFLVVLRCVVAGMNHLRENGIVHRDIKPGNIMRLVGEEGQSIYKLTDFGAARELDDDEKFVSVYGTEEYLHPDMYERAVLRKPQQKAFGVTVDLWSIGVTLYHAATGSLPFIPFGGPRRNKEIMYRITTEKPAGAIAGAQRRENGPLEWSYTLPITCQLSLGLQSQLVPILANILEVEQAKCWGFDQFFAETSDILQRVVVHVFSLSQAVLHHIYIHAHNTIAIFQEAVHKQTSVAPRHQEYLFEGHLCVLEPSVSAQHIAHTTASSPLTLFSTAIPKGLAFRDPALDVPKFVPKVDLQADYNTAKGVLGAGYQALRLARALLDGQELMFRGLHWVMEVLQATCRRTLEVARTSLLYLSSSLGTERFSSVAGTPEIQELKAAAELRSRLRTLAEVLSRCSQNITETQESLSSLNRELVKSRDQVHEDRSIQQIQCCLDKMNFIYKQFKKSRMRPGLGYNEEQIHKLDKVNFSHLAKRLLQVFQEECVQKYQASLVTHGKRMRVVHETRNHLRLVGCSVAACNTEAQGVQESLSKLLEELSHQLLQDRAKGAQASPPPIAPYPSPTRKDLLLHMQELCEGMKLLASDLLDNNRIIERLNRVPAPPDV
# MAPK3 (human) = MAPK3 (human) (UniProt P27361)
# MAP3K7 TAB1 (human) = MAP3K7 TAB1 (human) (UniProt O43318+Q15750)
# SRPK2 (human) = SRPK2 (human) (UniProt P78362)
# MAPKAPK3 (human) = MAPKAPK3 (human) (UniProt Q16644)
# MAP3K8 (human) = MAP3K8 (human) (UniProt P41279)
# MAP3K8 (human), sequence (P41279 whole entry, looked up): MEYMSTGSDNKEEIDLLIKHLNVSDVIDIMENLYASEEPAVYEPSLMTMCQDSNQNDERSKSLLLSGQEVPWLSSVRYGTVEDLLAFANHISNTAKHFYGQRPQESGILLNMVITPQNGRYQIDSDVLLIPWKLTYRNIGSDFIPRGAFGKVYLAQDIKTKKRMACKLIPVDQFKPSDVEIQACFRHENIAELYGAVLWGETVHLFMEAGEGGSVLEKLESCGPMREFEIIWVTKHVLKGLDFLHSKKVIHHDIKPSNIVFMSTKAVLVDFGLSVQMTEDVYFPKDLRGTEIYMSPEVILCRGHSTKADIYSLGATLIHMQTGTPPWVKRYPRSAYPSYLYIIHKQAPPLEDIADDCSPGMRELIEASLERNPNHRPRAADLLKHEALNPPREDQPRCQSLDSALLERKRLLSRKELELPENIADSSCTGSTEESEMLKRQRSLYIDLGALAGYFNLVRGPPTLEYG
# MAPK11 (human) = MAPK11 (human) (UniProt Q15759)
# PDPK1 (human) = PDPK1 (human) (UniProt O15530)
# NUAK2 (human) = NUAK2 (human) (UniProt Q9H093)
# PRKCH (human) = PRKCH (human) (UniProt P24723)
# PRKCB2 (human) = PRKCB2 (human) (UniProt P05771)
# STK24 (human) = STK24 (human) (UniProt Q9Y6E0)
# HIPK3 (human) = HIPK3 (human) (UniProt Q9H422)
# GSK3B (human) = GSK3B (human) (UniProt P49841)
# TLK2 (human) = TLK2 (human) (UniProt Q86UE8)
# NEK9 (human) = NEK9 (human) (UniProt Q8TD19)
# MAP4K5 (human) = MAP4K5 (human) (UniProt Q9Y4K4)
# MAP4K4 (human) = MAP4K4 (human) (UniProt O95819)
Compound,residual activity (EPHA6 (human)) [%],residual activity (STK38 (human)) [%],residual activity (DAPK3 (human)) [%],residual activity (RPS6KA6 KD1 KD2 (human)) [%],residual activity (WNK3 (human)) [%],residual activity (ULK3 (human)) [%],residual activity (RAF1 (human)) [%],residual activity (IKBKB (human)) [%],residual activity (CLK3 (human)) [%],residual activity (TGFBR2 (human)) [%],residual activity (PAK1 (human)) [%],residual activity (BRAF (human)) [%],residual activity (DMPK (human)) [%],residual activity (PTK6 (human)) [%],residual activity (MAPK10 (human)) [%],residual activity (IKBKE (human)) [%],residual activity (MAPK3 (human)) [%],residual activity (MAPKAPK3 (human)) [%],residual activity (MAP3K8 (human)) [%],residual activity (MAPK11 (human)) [%],further results
N#C/C(=C\c1ccc(O)c(O)c1)C(=O)NCc1ccccc1,95.7,99.1,86.5,108,95,71.2,92.8,103,125,111,97.7,109,99.7,86.7,98,105,106,102,98.1,98.7,residual activity (PTK2B (human)): 92.6%; residual activity (CHUK (human)): 103%; residual activity (CAMK1 (human)): 93%; residual activity (SYK (human)): 116%; residual activity (CSNK1D (human)): 98.3%; residual activity (EPHA3 (human)): 97.2%; residual activity (CDK1 CCNA2 (human)): 92.8%; residual activity (PRKACA (human)): 104%; residual activity (CDK6 CCND3 (human)): 104%; residual activity (MAP3K7 TAB1 (human)): 98.1%; residual activity (SRPK2 (human)): 96.6%; residual activity (PDPK1 (human)): 74%; residual activity (NUAK2 (human)): 131%; residual activity (PRKCH (human)): 95.5%; residual activity (PRKCB2 (human)): 99.8%; residual activity (STK24 (human)): 100%; residual activity (HIPK3 (human)): 96.6%; residual activity (GSK3B (human)): 106%; residual activity (TLK2 (human)): 105%; residual activity (NEK9 (human)): 97.2%
CO[C@@H]1[C@H](N(C)C(=O)c2ccccc2)C[C@H]2O[C@]1(C)n1c3ccccc3c3c4c(c5c6ccccc6n2c5c31)C(=O)NC4,79.5,83.8,82.6,1.15,91.4,37,114,97.9,89.6,99.1,35.1,106,112,96.2,98.9,9.85,88.4,91.5,99.6,97.6,residual activity (PTK2B (human)): 58.2%; residual activity (SYK (human)): 16.8%; residual activity (CSNK1D (human)): 101%; residual activity (PRKACA (human)): 34%; residual activity (PDPK1 (human)): 21.8%; residual activity (NUAK2 (human)): 26.2%; residual activity (PRKCH (human)): 20.4%; residual activity (MAP4K5 (human)): 7.01%; residual activity (STK24 (human)): 39.1%; residual activity (HIPK3 (human)): 93.3%; residual activity (TLK2 (human)): 75%; residual activity (NEK9 (human)): 64.4%
C[C@@H]1CCN(C(=O)CC#N)C[C@@H]1N(C)c1ncnc2[nH]ccc12,99,95.7,106,98.1,104,101,95.5,88.2,106,98.8,108,93.7,108,101,100,94.8,98.6,100,93.5,103,residual activity (CHUK (human)): 95%; residual activity (CAMK1 (human)): 99.3%; residual activity (EPHA3 (human)): 94.1%; residual activity (CDK1 CCNA2 (human)): 95.9%; residual activity (CDK6 CCND3 (human)): 110%; residual activity (MAP3K7 TAB1 (human)): 87.5%; residual activity (SRPK2 (human)): 90.7%; residual activity (PDPK1 (human)): 94.1%; residual activity (NUAK2 (human)): 80.3%; residual activity (PRKCH (human)): 100%; residual activity (MAP4K5 (human)): 112%; residual activity (PRKCB2 (human)): 88.1%; residual activity (STK24 (human)): 96.1%; residual activity (HIPK3 (human)): 100%; residual activity (GSK3B (human)): 99.6%; residual activity (MAP4K4 (human)): 101%; residual activity (TLK2 (human)): 94.4%; residual activity (NEK9 (human)): 96.2%
